For data set [1], the system named is non-alcoholic steatohepatitis (NASH). As to the kind of experiment: Accelerated mouse model of NASH (STZ + HFD), Part I. Type of data set: in vivo, C57BL/6J mice. Conditions: vs vehicle. The procedure:
The subjects for the study were 30 C57BL/6J male mice. Mice were given a 200 ug streptozotocin (STZ) at 2 days after birth and fed high fat diet (HFD) starting at four weeks of age until the remainder of the study (9 weeks of age). This intervention early in their lives induces accelerated progression of non-alcoholic steatohepatitis (NASH) and has been highly characterized.
The Vehicle was a solution of 0.5% (w/v) CMC and 0.05% (v/v) Tween-80 in water. Powdered 25HC3 S was constituted into the vehicle solution to result in drug concentrations of 5 and 10 mg/mL. The suspensions were homogenized for approximately 5 minutes being combined, with 10 second breaks every 30-40 seconds and swirled before dosing to maintain homogeneity. The formulated test article was prepared weekly and kept at room temperature.
Mice were divided into treatment groups (N=10/group) and dosed daily by oral gavage with vehicle, 10 mg/kg or 50 mg/kg 25HC3S starting from Week 5 to Week 9 (28 days treatment).

Data set [2] in a line: Syringeability study of 25HC3S suspensions. The format is physicochemical. On the procedure: Two lots of 25HC3S sodium salt (Lot #A and Lot #B) were used. Lot #B was delumped through a 20 mesh screen. The drug substance was either used directly or further jet-milled, prior to the preparation of suspensions for the studies. A third lot of 25HC3 S sodium salt (Lot #C) was jet-milled first and then used directly or further passed through a 20 mesh screen prior to the studies. More than 10 vehicles were screened. Four mixing methods were evaluated: manual shaking (Mixing Method 1), manual shaking followed by sonication (Mixing Method 2) and homogenization with a sonic probe (Mixing Method 3) as well as mechanical shaking horizontally in a flat bed shaker (Mixing Method 4). Studies #1 to 13 combined vehicle screening, mixing methods and syringeability evaluation. The effect of drug concentrations on the syringeability was evaluated (Studies #10 and 11). Syringe: 1 mL BD syringe (luer lok tip), reference no: 309628 Needles for syringeability study: listed below Weigh approximately 10 to 100 mg each of 25HC3S into 2 mL vials. Add to each vial, 1 mL of vehicle. A total of 3 mixing methods were used to prepare the suspensions. Mixing Method 1: Each vial was manually shaken for 15 to 45 times. […] The effect of 25HC3S with or without jet milling and the effects of mixing methods as well as drug concentrations on the syringeability were evaluated. […]

A short description of data set [3]: Ease of dispersion: appearance of suspension and sedimentation (visual inspection). Type of data set: physicochemical. Conditions: 25 mg/mL in Vehicle PEG 3350 (without L-Methionine). The procedure: Two lots of 25HC3S sodium salt (Lot #A and Lot #B) were used. Lot #B was delumped through a 20 mesh screen. The drug substance was either used directly or further jet-milled, prior to the preparation of suspensions for the studies. A third lot of 25HC3 S sodium salt (Lot #C) was jet-milled first and then used directly or further passed through a 20 mesh screen prior to the studies. More than 10 vehicles were screened. Four mixing methods were evaluated: manual shaking (Mixing Method 1), manual shaking followed by sonication (Mixing Method 2) and homogenization with a sonic probe (Mixing Method 3) as well as mechanical shaking horizontally in a flat bed shaker (Mixing Method 4). Studies #1 to 13 combined vehicle screening, mixing methods and syringeability evaluation. The effect of drug concentrations on the syringeability was evaluated (Studies #10 and 11).
Weigh approximately 10 to 100 mg each of 25HC3S into 2 mL vials. Add to each vial, 1 mL of vehicle. A total of 3 mixing methods were used to prepare the suspensions. Mixing Method 1: Each vial was manually shaken for 15 to 45 times. The suspension was inspected visually for sedimentation after stored at room temperature (RT) for one minute. […] Mixing Method 2: Each vial was manually shaken 30 times followed by sonication for 3 or 6 minutes for syringeability study. […]

The mark [4] stands for this setting: 10 mg/kg daily oral gavage 28 days.

`C[C@H](CCCC(C)(C)O)[C@H]1CC[C@H]2[C@@H]3CC=C4C[C@@H](OS(=O)(=O)[O-])CC[C@]4(C)[C@H]3CC[C@]12C.[Na+]` [Formulation 25HC3S, 5-cholesten-3, 25-diol, 3-sulfate]: the “H&E-stained liver sections” value in data set [1] (setting [4]) is “No obvious changes”. In addition, the “percent area of fibrosis” value in data set [1] (setting [4]) is given as “no significant difference”. For the same compound, the “percent area of fibrosis (Sirius red-positive area)” value in data set [1] (50 mg/kg daily oral gavage 28 days, p=0.0061) is recorded as “significantly decreased”. In data set [1] (50 mg/kg daily oral gavage 28 days, p=0.0088), the “NAS (NAFLD activity score)” value was “significant reduction”. The syringeability entry is listed as “good syringeability” in data set [2] (25 mg/mL in Vehicle PEG 3350 (without L-Methionine), flat bed shaker 200 rpm up to 45 minutes (Study #13)) and “good syringeability” in data set [2] (final suspension formulation: 25 mg/mL in 3% PEG 3350, 0.3% Tween 80, 0.75% NaCl, 10 mM phosphate buffer pH 7.4). Further, the dispersion entry is recorded as “did not disperse well” in data set [3] (flat bed shaker 100 rpm up to 50 minutes (Study #12)) and “dispersed well” in data set [3] (flat bed shaker 200 rpm up to 45 minutes (Study #13)).

Source of the values: patent publication US20220175798A1, “COMPOSITIONS COMPRISING OXYGENATED CHOLESTEROL SULFATE AND AT LEAST ONE OF POLYALKYLENE GLYCOL, CARBOXYMETHYL CELLULOSE AND POLYOXYLGLYCERIDE” (Durect Corporation, priority 2016, published 2022).
